Source: paper PMC8464905, “Novel c-Jun N-Terminal Kinase (JNK) Inhibitors with an 11H-Indeno[1,2-b]quinoxalin-11-one Scaffold” (Molecules, 2021)
Like-named read-outs stand apart in the source and are kept apart here.

Tests used:
[1] = target: T1, JNK3 (Homo sapiens, UniProt P53779); assay: KINOMEscan Kd determination, JNK3; conditions: duplicate, mean, N.B. = no binding at < 30 μM
T1 construct: purchased Eurofins Pharma Discovery (KINOMEscan)
Method: (§1) Selected compounds were submitted for dissociation constant (Kd) determination using KINOMEscan (Eurofins Pharma Discovery, San Diego, CA, USA), as described previously. […] Primary screening at fixed concentrations of compounds was performed in duplicate.

[2] = system: JNK1-3; assay: KINOMEscan binding, statements for all three JNK isoforms; conditions: summary of Table 3
Method: as §1

[3] = system: THP-1Blue cells; assay: CellTiter-Glo cytotoxicity in THP-1Blue cells; format: cell-based, human; conditions: 24-h incubation, up to 50 μM
Method: (§2) All cells were cultured at 37 °C in a humidified atmosphere containing 5% CO2. THP1-Blue cells obtained from InvivoGen (San Diego, CA, USA) were cultured in RPMI 1640 medium (Mediatech Inc., Herndon, VA, USA) supplemented with 10% (v/v) fetal bovine serum (FBS), 100 μg/mL streptomycin, 100 U/mL penicillin, 100 μg/mL phleomycin (Zeocin), and 10 μg/mL blasticidin S. Human monocyte-macrophage MonoMac-6 cells (Deutsche Sammlung von Mikroorganismen und Zellkulturen GmbH, Braunschweig, Germany) were grown in RPMI 1640 medium supplemented with 10% (v/v) FBS, 10 μg/mL bovine insulin, 100 μg/mL streptomycin, and 100 U/mL penicillin.
(§3) Cytotoxicity was analyzed with a CellTiter-Glo Luminescent Cell Viability Assay Kit from Promega (Madison, WI, USA), according to the manufacturer’s protocol. Cells were treated with compounds under investigation and incubated for 24 h. After treatment, the cells were equilibrated to room temperature for 30 min, substrate was added, and the samples were analyzed with a Fluoroscan Ascent FL (Thermo Fisher Scientific, Waltham, MA, USA). The IC50 values were calculated by plotting percentage inhibition against the logarithm of inhibitor concentration (at least five points).

[4] = CellTiter-Glo cytotoxicity in THP-1Blue cells; format: cell-based, human; conditions: human, THP-1Blue cells; 24-h incubation, up to 50 μM; read-out: THP-1Blue Cell Cytotoxicity IC50
Method: as §2, §3

[5] = CellTiter-Glo cytotoxicity in MonoMac-6 cells; format: cell-based, human; conditions: human, MonoMac-6 cells; 24-h incubation, up to 50 μM; read-out: MonoMac-6 Cell Cytotoxicity IC50
Method: as §2, §3

[6] = target: T2, JNK2 (Homo sapiens, UniProt P45984); assay: KINOMEscan Kd determination, JNK2; conditions: duplicate, mean, N.B. = no binding at < 30 μM
T2 construct: purchased Eurofins Pharma Discovery (KINOMEscan)
T2 sequence (P45984 whole entry): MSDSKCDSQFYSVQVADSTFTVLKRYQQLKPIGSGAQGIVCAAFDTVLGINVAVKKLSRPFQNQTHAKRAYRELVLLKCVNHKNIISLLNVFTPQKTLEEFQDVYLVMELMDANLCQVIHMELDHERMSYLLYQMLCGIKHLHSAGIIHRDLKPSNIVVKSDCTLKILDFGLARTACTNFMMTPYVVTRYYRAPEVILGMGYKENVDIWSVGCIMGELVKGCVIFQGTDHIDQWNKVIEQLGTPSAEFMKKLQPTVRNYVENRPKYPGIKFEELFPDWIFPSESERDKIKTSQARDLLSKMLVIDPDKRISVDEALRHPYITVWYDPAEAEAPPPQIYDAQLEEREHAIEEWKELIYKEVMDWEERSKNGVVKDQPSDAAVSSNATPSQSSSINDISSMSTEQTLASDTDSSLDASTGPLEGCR
Method: as §1

[7] = system: IL-6; assay: LPS-induced IL-6 production in MonoMac-6 cells (ELISA); format: cell-based; conditions: Homo sapiens, MONO-MAC-6; 30 min pretreatment, 250 ng/mL LPS for 24 h; read-out: MonoMac-6 Cell IL-6 IC50
Method: as §2
A human IL-6 ELISA kit (BD Biosciences, San Jose, CA, USA) was measure IL-6 production. MonoMac-6 cells were plated in 96-well plates at a density of 2 × 10^5 cells/well in culture medium supplemented with 3% (v/v) endotoxin-free FBS. The cells were pretreated with test compound or DMSO for 30 min, followed by addition of 250 ng/mL LPS for 24 h. IC50 values for IL-6 production were calculated by plotting percentage inhibition against the logarithm of inhibitor concentration (at least five points).

[8] = target: T3, JNK1 (Homo sapiens, UniProt P45983); assay: KINOMEscan Kd determination, JNK1; conditions: duplicate, mean, N.B. = no binding at < 30 μM
T3 construct: purchased Eurofins Pharma Discovery (KINOMEscan)
T3 sequence (P45983 whole entry): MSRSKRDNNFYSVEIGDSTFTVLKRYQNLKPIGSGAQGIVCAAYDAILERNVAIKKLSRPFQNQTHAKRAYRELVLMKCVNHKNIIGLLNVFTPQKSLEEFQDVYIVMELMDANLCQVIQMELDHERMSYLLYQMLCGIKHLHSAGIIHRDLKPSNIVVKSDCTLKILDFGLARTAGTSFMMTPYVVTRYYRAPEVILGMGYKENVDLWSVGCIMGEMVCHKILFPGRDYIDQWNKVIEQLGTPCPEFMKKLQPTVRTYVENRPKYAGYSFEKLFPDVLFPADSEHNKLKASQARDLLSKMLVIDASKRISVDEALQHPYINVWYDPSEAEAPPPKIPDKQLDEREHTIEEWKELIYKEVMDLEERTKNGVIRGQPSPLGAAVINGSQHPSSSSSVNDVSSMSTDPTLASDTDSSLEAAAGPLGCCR
Method: as §1

[9] = target: T1, JNK3; conditions: previously identified inhibitors; ref [35],[36]; cited from earlier work
[10] = target: T3, JNK1; conditions: previously identified inhibitors; ref [35],[36]; cited from earlier work
[11] = target: T2, JNK2; conditions: previously identified inhibitors; ref [35],[36]; cited from earlier work
[12] = system: NF-κB/AP-1; assay: LPS-induced NF-κB/AP-1 alkaline phosphatase reporter assay in THP1-Blue cells; format: cell-based; conditions: Homo sapiens; 30 min pretreatment, 250 ng/mL LPS for 24 h; read-out: THP-1Blue Cell NF-κB/AP-1 IC50
Method: as §2
Activation of AP-1/NF-κB was measured using an alkaline phosphatase reporter gene assay in THP1-Blue cells. Human monocytic THP-1 Blue cells are stably transfected with a secreted embryonic alkaline phosphatase gene that is under the control of a promoter inducible by NF-κB/AP-1. THP1-Blue cells (2 × 10^5 cells/well) were pretreated with test compound or DMSO for 30 min, followed by addition of 250 ng/mL lipopolysaccharide (LPS) for 24 h, and alkaline phosphatase activity was measured in cell supernatants using QUANTI-Blue mix (InvivoGen) as absorbance at 655 nm and compared with positive control samples (LPS). For selected compounds, the concentrations of inhibitor that caused 50% inhibition of the NF-κB reporter activity (IC50) were calculated.

[13] = system: MonoMac-6 cells; assay: CellTiter-Glo cytotoxicity in MonoMac-6 cells; format: cell-based, human; conditions: 24-h incubation, up to 50 μM
Method: as §2, §3

T1 sequence (P53779 whole entry): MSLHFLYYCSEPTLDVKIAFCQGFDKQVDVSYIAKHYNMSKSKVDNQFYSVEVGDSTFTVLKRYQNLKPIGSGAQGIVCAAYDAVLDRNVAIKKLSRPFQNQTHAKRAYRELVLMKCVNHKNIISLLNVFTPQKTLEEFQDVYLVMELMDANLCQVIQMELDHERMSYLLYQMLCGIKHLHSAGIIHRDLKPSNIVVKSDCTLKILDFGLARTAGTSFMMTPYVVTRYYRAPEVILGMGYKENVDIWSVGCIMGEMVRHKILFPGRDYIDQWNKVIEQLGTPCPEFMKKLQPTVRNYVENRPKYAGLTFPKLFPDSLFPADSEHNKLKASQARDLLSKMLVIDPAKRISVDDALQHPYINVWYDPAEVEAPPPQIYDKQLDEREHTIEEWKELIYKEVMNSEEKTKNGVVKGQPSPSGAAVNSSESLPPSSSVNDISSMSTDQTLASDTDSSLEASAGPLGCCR

Row | Compound | Kd [1] [nM] | Binding affinity (Kd) for all three JNK isoforms, in words [2] | melting point [°C] | Kd [6] [nM] | IC50 [7] [nM] | Kd [8] [nM] | IC50 [12] [nM] | THP-1Blue Cell Cytotoxicity IC50 [3] | IC50 at 24 h [4] [nM] | IC50 at 24 h [5] [nM] | Kd [9] [nM] | Kd [10] [nM] | Kd [11] [nM] | MonoMac-6 Cell Cytotoxicity IC50 [13]
1 | O/N=C1/c2ccccc2-c2nc3ccc(Cl)cc3nc21 [C] |  |  |  |  |  |  |  |  |  |  | 700 | 1100 | 21500 | 
2 | O=[N+]([O-])c1ccc2nc3c(nc2c1)-c1ccccc1/C3=N/O [B] |  |  |  |  |  |  |  |  |  |  | 4300 | 6000 | 12000 | 
3 | ON=C1c2ccccc2-c2nc3c(Cl)cccc3nc21 [Compound 4b, 6-Chloro-11H-indeno[1,2-b]quinoxalin-11-one Oxime] | 140 ± 30 | submicromolar | 270 to 271 | 220 ± 60 | 1200 ± 400 | 170 ± 40 | 900 ± 300 |  | > 50000 | > 50000 |  |  |  | 
4 | COC(=O)c1ccc2nc3c(nc2c1)C(=NO)c1ccccc1-3 [Compound 4l, Methyl-11-(hydroxyimino)-11H-indeno[1,2-b]quinoxaline-8-carboxylate] | 710 ± 50 | submicromolar | 300 to 301 | 2400 ± 200 | > 50000 | 910 ± 160 |  | exhibited cytotoxicity | 26100 ± 5300 | > 50000 |  |  |  | 
5 | CC(C)(C)c1ccc2nc3c(nc2c1)-c1ccccc1/C3=N/O [Compound 4d, (11Z/E)-7-tert-Butyl-11H-indeno[1,2-b]quinoxalin-11-one Oxime] | 3100 ± 200 | relatively low affinity | 197 to 198 | 1600 ± 600 | 1000 ± 200 | 3100 ± 100 | 400 ± 100 |  | > 50000 | > 50000 |  |  |  | 
6 | Cc1ccc2nc3c(nc2c1)-c1ccccc1/C3=N/O [D] |  |  |  |  |  |  |  |  |  |  | 300 | 700 | 800 | 

Continued, in another order:

Row | Kd [1] [nM] | Binding affinity (Kd) for all three JNK isoforms, in words [2] | melting point [°C] | Kd [6] [nM] | IC50 [7] [nM] | Kd [8] [nM] | IC50 [12] [nM] | Compound | THP-1Blue Cell Cytotoxicity IC50 [3] | IC50 at 24 h [4] [nM] | IC50 at 24 h [5] [nM] | Kd [9] [nM] | Kd [10] [nM] | Kd [11] [nM] | MonoMac-6 Cell Cytotoxicity IC50 [13]
7 | > 30000 | inactive | 253 to 254 | > 30000 | 4800 ± 500 | > 30000 |  | ON=C1c2ccccc2-c2nc3c(C(F)(F)F)cc(C(F)(F)F)cc3nc21 [Compound 4j, 6,8-bis(Trifluoromethyl)-11H-indeno[1,2-b]quinoxalin-11-one oxime] | exhibited cytotoxicity | 36500 ± 1900 | > 50000 |  |  |  | 
8 | > 30000 | inactive | 236 to 237 | > 30000 |  | > 30000 | 2500 ± 600 | ON=C1c2ccccc2-c2nc3c(Br)cc(C(F)(F)F)cc3nc21 [Compound 4h, 6-Bromo-8-(trifluoromethyl)-11H-indeno[1,2-b]quinoxalin-11-one Oxime] |  | > 50000 | 29000 ± 2500 |  |  |  | cytotoxic
9 | 24500 ± 2100 |  | 276 to 277 | > 30000 | 2300 ± 400 | > 30000 | 600 ± 200 | ON=C1c2ccccc2-c2nc3cc(F)c(Cl)cc3nc21 [Compound 4k, 8-Chloro-7-fluoro-11H-indeno[1,2-b]quinoxalin-11-one Oxime] |  | > 50000 | > 50000 |  |  |  | 
10 | 190 ± 10 | submicromolar | 250 to 251 | 620 ± 10 | 3000 ± 600 | 280 ± 70 | 300 ± 100 | ON=C1c2ccccc2-c2nc3cc(F)ccc3nc21 [Compound 4a, 7-Fluoro-11H-indeno[1,2-b]quinoxalin-11-one Oxime] |  | > 50000 | > 50000 |  |  |  | 
11 | > 30000 | inactive | 324 to 325 | > 30000 | 6200 ± 200 | > 30000 | 2900 ± 900 | O/N=C1/c2ccccc2-c2nc3c(Cl)cc(C(F)(F)F)cc3nc21 [Compound 4i, (11Z/E)-6-Chloro-8-(trifluoromethyl)-11H-indeno[1,2-b]quinoxalin-11-one Oxime] |  | > 50000 | > 50000 |  |  |  | 
12 | 1100 ± 100 |  | 257 to 258 | 910 ± 60 |  | 520 ± 90 | 2100 ± 400 | ON=C1c2ccccc2-c2nc3c(F)c(F)ccc3nc21 [Compound 4g, 6,7-Difluoro-11H-indeno[1,2-b]quinoxalin-11-one Oxime] |  | > 50000 | 32000 ± 2200 |  |  |  | cytotoxic
13 | 900 ± 300 | submicromolar | 255 to 256 | 1600 ± 10 | 2200 ± 200 | 920 ± 50 | 400 ± 100 | ON=C1c2ccccc2-c2nc3c(F)cc(F)cc3nc21 [Compound 4e, 6,8-Difluoro-11H-indeno[1,2-b]quinoxalin-11-one Oxime] |  | > 50000 | > 50000 |  |  |  | 
14 | > 30000 | inactive | 255 to 256 | > 30000 |  | > 30000 |  | Cc1cc(Br)cc2nc3c(nc12)-c1ccccc1C3=NO [Compound 4c, 6-Methyl-8-bromo-11H-indeno[1,2-b]quinoxalin-11-one Oxime] | exhibited cytotoxicity | 37500 ± 1700 | 14600 ± 1200 |  |  |  | cytotoxic
